Data taken from patent US12589087B2, “Enantiomer selective action on neurotransmission” (The Board of Trustees of the Leland Stanford Junior …, priority 2021, dated 2026).

Assays:
GABAB (B1/B2) = biological target: T1, GABAB (B1/B2) (Homo sapiens, UniProt Q9UBS5); assay: functional assay, Ca2+-dependent fluorimetry in RBL cells; assay type: cell-based; conditions: 100 μM
T1 construct: host or cells: RBL cells
Protocol: Functional assays of all GABAA, NMDA (GluN2A-GluN2D) and AMPA (GluA2) receptor subunits were performed by SB Drug Discovery as a part of their CNS discovery panel using FLIPR technology. Briefly, receptor-expressing HEK 293 cell lines were incubated in a red membrane potential dye in HEPES:HBSS pH 7.4 buffer and the fluorescence (λex: 488, λex: 510-570) was monitored over time as the test compounds and/or reference compounds were added to the solution. In agonist assay, only test compounds were added. In positive allosteric modulator assay, cells were preincubated with test compounds and then low concentration (approximately EC20) of an appropriate agonist was added. In antagonist assay, cells were preincubated with test compounds and then high concentration (approximately EC80) of an appropriate agonist was added. For GABAA assays, GABA was used as the agonist, picrotoxin was used as the reference antagonist and allopregnanolone was used as the reference positive allosteric modulator (PAM). […] All compounds were tested at 7 concentration points in triplicate and EC50/IC50 was determined where applicable. […]
All receptor assays were performed exactly as described in Example 1. […] All compounds were tested at 7 concentrations in triplicate and EC50/IC50 was determined where applicable. […]

mGluR2 = biological target: T2, mGluR2 (Homo sapiens, UniProt Q14416); assay: radioligand binding assay, recombinant Chem-1 cells
T2 construct: host or cells: Chem-1 cells
T2 sequence (Q14416 19-872): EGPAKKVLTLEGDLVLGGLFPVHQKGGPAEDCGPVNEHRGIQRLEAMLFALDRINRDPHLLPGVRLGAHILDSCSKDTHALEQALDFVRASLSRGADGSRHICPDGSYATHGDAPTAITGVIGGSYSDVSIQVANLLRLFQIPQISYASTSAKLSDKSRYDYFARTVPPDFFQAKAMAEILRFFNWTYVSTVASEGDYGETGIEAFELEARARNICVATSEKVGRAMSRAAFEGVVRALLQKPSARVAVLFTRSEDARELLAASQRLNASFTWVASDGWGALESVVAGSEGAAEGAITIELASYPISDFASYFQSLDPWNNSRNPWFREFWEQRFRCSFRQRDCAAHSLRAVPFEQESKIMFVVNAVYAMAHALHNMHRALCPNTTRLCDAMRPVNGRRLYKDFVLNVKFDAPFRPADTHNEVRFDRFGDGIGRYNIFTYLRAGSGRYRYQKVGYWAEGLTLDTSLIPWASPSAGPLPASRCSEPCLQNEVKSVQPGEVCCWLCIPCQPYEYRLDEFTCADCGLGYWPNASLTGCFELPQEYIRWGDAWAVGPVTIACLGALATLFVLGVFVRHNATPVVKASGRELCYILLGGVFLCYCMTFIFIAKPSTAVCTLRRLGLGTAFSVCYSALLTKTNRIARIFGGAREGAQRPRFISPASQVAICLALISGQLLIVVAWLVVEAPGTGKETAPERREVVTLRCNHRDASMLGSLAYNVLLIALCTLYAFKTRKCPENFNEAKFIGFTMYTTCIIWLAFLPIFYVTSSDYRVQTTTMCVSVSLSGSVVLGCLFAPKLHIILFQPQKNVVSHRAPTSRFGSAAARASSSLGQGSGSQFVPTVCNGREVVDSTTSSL
Protocol: (§1) Nonspecific AMPA, kainate and NMDA binding assays were performed by Eurofins Discovery (Cerep) using rat cerebral cortex membranes and radiolabeled [^3H]AMPA, [^3H]kainic acid and [^3H]CGP 39653, respectively. All compounds were tested at a single concentration of 100 uM in triplicate. mGluR1, mGluR2, mGluR5 and GABAB binding assays were performed by Eurofins Discovery. mGluR1 assay was performed using rat cerebellum membranes and radiolabeled [^3H]quisqalic acid. mGluR2 assay was performed using recombinant Chem-1 cells and [^3H]LY341495. mGluR5 and GABAB binding assays were performed using recombinant CHO-K1 cells and […], respectively. All compounds were tested at a single concentration of 100 uM in triplicate.
(§2) All receptor assays were performed exactly as described in Example 1. Functional assays of all GABAA, NMDA (GluN2A-GluN2D) and AMPA (GluA2) receptor subunits were performed by SB Drug Discovery as a part of their CNS discovery panel using FLIPR technology. All compounds were tested at 7 concentrations in triplicate and EC50/IC50 was determined where applicable. Functional GABAB assay was performed by Eurofins Discovery (Cerep) using Ca^2+-dependent fluorimetry in RBL cells expressing human GABAB (B1/B2) receptor. All compounds were tested at a single concentration of 100 uM in triplicate. […]

GABAB (B1b/B2) = biological target: T3, GABAB (B1b/B2) (Homo sapiens, UniProt Q9UBS5); assay: radioligand binding assay
T3 construct: host or cells: CHO-K1
T3 sequence (Q9UBS5 1-844 isoform Q9UBS5-2): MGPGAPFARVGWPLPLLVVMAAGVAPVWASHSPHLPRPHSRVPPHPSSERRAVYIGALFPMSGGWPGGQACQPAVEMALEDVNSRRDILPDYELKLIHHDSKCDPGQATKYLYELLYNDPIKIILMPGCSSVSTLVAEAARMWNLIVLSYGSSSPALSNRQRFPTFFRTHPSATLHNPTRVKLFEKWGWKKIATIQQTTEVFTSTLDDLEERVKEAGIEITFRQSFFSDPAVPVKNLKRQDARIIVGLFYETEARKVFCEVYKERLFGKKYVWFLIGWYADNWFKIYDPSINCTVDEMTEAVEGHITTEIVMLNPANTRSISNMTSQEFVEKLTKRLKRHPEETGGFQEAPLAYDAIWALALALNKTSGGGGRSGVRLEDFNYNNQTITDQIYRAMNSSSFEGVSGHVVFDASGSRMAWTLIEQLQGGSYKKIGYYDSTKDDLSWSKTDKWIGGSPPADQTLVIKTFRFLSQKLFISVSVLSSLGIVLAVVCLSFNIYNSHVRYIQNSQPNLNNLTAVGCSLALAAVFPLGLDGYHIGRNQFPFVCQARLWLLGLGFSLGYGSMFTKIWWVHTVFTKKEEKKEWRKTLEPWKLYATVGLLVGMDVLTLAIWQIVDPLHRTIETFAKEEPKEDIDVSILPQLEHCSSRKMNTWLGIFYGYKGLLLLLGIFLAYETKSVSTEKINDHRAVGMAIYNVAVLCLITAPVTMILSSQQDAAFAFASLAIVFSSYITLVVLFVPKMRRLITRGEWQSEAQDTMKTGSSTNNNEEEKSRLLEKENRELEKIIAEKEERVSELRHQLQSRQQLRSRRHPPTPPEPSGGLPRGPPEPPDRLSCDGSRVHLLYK
T3 sequence (O75899 42-941 partner): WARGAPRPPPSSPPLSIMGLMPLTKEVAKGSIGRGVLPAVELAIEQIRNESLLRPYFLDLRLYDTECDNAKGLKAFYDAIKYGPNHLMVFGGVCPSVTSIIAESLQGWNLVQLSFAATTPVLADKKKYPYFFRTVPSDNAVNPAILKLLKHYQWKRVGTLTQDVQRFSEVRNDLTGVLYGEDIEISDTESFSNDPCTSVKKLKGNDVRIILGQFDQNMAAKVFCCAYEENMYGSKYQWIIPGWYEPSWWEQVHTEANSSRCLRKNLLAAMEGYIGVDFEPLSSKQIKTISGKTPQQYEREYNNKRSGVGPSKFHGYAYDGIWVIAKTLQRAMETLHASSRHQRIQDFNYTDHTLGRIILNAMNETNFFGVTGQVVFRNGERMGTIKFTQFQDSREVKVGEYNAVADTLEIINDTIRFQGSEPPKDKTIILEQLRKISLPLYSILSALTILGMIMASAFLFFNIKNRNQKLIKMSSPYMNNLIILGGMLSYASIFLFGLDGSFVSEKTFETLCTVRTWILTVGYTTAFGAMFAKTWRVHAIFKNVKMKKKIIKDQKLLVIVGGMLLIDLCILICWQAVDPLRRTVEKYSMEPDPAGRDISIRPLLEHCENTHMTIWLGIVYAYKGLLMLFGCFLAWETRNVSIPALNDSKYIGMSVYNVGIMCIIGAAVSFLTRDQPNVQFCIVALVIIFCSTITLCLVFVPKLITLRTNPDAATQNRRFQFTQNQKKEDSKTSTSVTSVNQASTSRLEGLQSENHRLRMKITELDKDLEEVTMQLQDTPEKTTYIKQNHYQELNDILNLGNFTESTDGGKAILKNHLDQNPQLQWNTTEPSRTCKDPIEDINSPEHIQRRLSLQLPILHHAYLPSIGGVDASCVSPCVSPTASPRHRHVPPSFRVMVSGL
Protocol: as §1
(§3) All receptor assays were performed exactly as described in Example 1. Functional assays of all GABAA, NMDA (GluN2A-GluN2D) and AMPA (GluA2) receptor subunits were performed by SB Drug Discovery as a part of their CNS discovery panel using FLIPR technology. All compounds were tested at 7 concentrations in triplicate and EC50/IC50 was determined where applicable. Functional GABAB assay was performed by Eurofins Discovery (Cerep) using Ca^2+-dependent fluorimetry in RBL cells expressing human GABAB (B1/B2) receptor. All compounds were tested at a single concentration of 100 uM in triplicate. Nonspecific AMPA, kainate and NMDA binding assays were performed by Eurofins Discovery (Cerep) using rat cerebral cortex membranes and radiolabeled [^3H]AMPA, [^3H]kainic acid and [^3H]CGP 39653, respectively. All compounds were tested at a single concentration of 100 uM in triplicate. mGluR1, mGluR2, mGluR5 and GABAB binding assays were performed by Eurofins Discovery. All compounds were tested at a single concentration of 100 uM in triplicate.

GABAB (B1a/B2) = biological target: T4, GABAB (B1a/B2) (Homo sapiens, UniProt Q9UBS5); assay: radioligand binding assay
T4 construct: host or cells: CHO-K1
T4 sequence (Q9UBS5 15-961 limits assumed): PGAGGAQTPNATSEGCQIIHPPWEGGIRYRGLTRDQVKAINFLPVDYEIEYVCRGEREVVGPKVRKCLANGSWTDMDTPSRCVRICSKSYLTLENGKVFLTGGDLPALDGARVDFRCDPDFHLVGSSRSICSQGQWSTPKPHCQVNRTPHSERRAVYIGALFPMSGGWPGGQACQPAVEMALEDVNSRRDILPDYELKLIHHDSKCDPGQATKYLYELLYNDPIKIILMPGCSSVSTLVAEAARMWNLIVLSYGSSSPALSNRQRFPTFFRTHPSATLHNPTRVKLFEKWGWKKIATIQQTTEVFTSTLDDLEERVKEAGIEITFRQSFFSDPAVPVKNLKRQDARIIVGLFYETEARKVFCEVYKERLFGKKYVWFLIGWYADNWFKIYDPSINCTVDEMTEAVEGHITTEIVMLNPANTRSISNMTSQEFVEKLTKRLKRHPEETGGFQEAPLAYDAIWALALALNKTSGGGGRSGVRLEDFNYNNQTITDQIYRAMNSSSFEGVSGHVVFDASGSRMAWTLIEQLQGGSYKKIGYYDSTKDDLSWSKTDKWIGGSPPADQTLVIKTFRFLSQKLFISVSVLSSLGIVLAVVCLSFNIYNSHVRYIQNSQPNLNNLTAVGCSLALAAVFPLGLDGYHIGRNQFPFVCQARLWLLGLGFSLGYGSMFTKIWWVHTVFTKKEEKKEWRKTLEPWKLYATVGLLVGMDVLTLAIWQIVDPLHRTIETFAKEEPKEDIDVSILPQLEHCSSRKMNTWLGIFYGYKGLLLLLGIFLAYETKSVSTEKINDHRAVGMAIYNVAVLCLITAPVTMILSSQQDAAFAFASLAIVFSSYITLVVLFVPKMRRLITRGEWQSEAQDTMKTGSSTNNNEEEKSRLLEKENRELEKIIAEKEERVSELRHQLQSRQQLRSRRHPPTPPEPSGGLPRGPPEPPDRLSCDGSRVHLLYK
T4 sequence (O75899 42-941 partner): as the sequence (O75899 42-941 partner) above
Protocol: as §1, §3

kainate nonspecific = assay: radioligand binding assay, cerebral cortex membranes, [3H]kainic acid; conditions: kainate nonspec, rat; 100 μM
Protocol: as §1, §2

AMPA nonspecific = assay: radioligand binding assay, cerebral cortex membranes, [3H]AMPA; conditions: AMPA nonspec, rat; 100 μM
Protocol: as §1, §2

mGluR1 = assay: radioligand binding assay, cerebellum membranes; conditions: mGluR1, rat; 100 μM
Protocol: as §1, §2

[1] = test system: mouse cerebral synaptosomes; assay: Potassium-induced neurotransmitter release assay; assay type: cell-based; conditions: preloaded with 100 μM for 15 min at 37° C., high-potassium depolarization
Protocol: To each tube, 2.5 μL of a test compound solution (final concentration 100 μM) in Buffer KRP or Buffer KRP alone were added. Samples were incubated for 15 min at 37° C., briefly chilled on ice, and then immediately centrifuged and washed twice with Buffer KRP. The resulting pellets were then resuspended in either Buffer KRP (500 μL) or Buffer K-KRP (500 μL). Samples were immediately centrifuged or incubated for 5, 10 or 15 min at 37° C., then centrifuged and washed with Buffer KRP. Resulting pellets were resuspended in 400 μL of 60% ACN containing 2.5 μM Glu-d5 and 2.5 μM Gln-d5 as internal standards.
Synaptosome uptake and high potassium-induced release assays were performed as described in Example 1. Uptake assays used 250 μL aliquots of the synaptosome suspension transferred to a pre-chilled 0.8 mL 96 well plate. 5 μL of a test compound solution (0.5 mM; final concentration: 10 μM to compare directly to our previous work was added to each well and incubated at 0° C. or 37° C. After 10, 20 or 30 min, samples were chilled on ice and immediately sedimented (2,500 g for 15 min at 4° C.) and washed with Buffer S (0.5 mL, ×2). Resulting pellets were resuspended in 200 μL of 60% ACN containing 5 μM GABA-d6 and stored at −80° C. until analysis. Potassium-induced release assay used 500 μL aliquots of the synaptosome suspension transferred to pre-chilled microcentrifuge tubes. 2.5 μL of a test compound solution (20 mM; final concentration: 100 μM) in Buffer KRP was added to each tube and incubated for 15 min at 37° C., briefly chilled on ice, and then immediately sedimented (8,000 g for 4 min at 4° C.) and washed with Buffer KRP, followed by centrifugation, twice. The resulting pellets were resuspended in 500 μL of Buffer KRP or Buffer K-KRP and incubated for 5, 10 or 15 min at 37° C., sedimented (8,000 g for 4 min at 4° C.), and washed with Buffer KRP. Resulting pellets were resuspended in 400 μL of 60% ACN containing 2.5 μM GABA-d6 as internal standard and stored at −80° C. until analysis.

T1 sequence (Q9UBS5 20-961): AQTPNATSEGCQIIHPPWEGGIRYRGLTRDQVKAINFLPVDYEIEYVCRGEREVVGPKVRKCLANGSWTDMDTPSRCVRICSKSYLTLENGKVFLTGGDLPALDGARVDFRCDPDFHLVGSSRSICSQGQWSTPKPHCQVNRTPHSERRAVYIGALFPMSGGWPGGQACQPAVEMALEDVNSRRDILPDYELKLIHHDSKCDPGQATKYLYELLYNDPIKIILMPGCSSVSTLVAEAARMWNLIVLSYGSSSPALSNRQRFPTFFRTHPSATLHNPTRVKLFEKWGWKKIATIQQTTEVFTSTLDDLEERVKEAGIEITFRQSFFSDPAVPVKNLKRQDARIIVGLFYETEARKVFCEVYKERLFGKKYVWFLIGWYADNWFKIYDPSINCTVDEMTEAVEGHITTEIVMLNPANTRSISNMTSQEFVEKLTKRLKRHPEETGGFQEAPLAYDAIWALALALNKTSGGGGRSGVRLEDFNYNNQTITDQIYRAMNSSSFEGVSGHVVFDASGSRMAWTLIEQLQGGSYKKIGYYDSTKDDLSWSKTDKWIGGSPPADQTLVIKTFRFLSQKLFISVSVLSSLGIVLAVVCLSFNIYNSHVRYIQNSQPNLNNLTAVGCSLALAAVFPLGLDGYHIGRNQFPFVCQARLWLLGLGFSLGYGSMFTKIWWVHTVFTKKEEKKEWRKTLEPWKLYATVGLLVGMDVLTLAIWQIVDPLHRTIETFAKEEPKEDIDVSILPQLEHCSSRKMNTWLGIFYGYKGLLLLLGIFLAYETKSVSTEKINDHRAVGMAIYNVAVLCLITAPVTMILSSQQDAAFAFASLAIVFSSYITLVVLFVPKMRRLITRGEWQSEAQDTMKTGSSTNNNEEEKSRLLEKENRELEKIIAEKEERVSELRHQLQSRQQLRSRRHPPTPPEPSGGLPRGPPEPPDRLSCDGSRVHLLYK
T1 sequence (O75899 42-941 partner): as the sequence (O75899 42-941 partner) above

C[C@](N)(CCC(=O)O)C(=O)O [(S)-2MeGlu, (S)-2-methylglutamic acid]
% of agonist response (GABAB (B1/B2)): 0%
inhibition at 100 µM (mGluR2): 25%
inhibition at 100 µM (GABAB (B1b/B2)): 14%
inhibition at 100 µM (GABAB (B1a/B2)): 6%
% of radioligand binding inhibition (kainate nonspecific): 20%
% of radioligand binding inhibition (AMPA nonspecific): 12%
% of radioligand binding inhibition (mGluR1): 6%
potassium-induced release from synaptosomes [1]: released upon depolarization

C[C@@](N)(CCC(=O)O)C(=O)O [(R)-2MeGlu, (R)-2-methylglutamic acid]
% of agonist response (GABAB (B1/B2)): 0%
inhibition at 100 µM (mGluR2): -3%
inhibition at 100 µM (GABAB (B1b/B2)): 13%
inhibition at 100 µM (GABAB (B1a/B2)): 18%
% of radioligand binding inhibition (kainate nonspecific): 18%
% of radioligand binding inhibition (AMPA nonspecific): 15%
% of radioligand binding inhibition (mGluR1): −3%
potassium-induced release from synaptosomes [1]: not significantly altered by depolarization
